Assay results taken from PubChem BioAssay (NCI).
“And” between values parts separate entries of the source, which are not always exact repeats. Identical values can stand only once.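 In this assay, cells in 96-well plates receive the compound at five concentrations for 48 hours. Endpoints are linearly interpolated between the surrounding concentrations. At the GI50, growth is halved. The concentration for full growth arrest is given as TGI.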

Assays:
Assay in all cases: NCI anticancer screen, dose series, 48 h
[1] = test system: EKVX NSCLC
[2] = test system: U251 CNS
[3] = test system: UACC-62 melanoma
[4] = test system: UO-31 renal
[5] = test system: HL-60(TB) leukemia
[6] = test system: HT29 colon
[7] = test system: OVCAR-4 ovarian
[8] = test system: 786-0 renal

Row | Structure (SMILES) | GI50 [1] | TGI [1] | GI50 [2] | TGI [2] | GI50 [3] | TGI [3] | GI50 [4] | TGI [4] | GI50 [5] | TGI [5] | GI50 [6] | TGI [6] | GI50 [7] | TGI [7] | GI50 [8] | TGI [8]
1 | COc1ccc(C2[C@@H](c3ccccc3)C(=O)N2c2cc(OC)c(OC)c(OC)c2)cc1F (stereo partly drawn) | 0.0776 µM | > 100 µM | 0.0359 µM | > 100 µM | 0.0543 µM | > 100 µM | 0.0771 µM | > 100 µM | 0.0223 µM | 0.0542 µM | 0.026 µM | 0.0781 µM | 0.0871 µM | > 100 µM | 0.0314 µM | > 100 µM
2 | COc1cc(/C(C#N)=C/c2nc3c(N4CCOCC4)nc(Cl)nc3n2C)cc(OC)c1OC | – | > 69.9 µM | < 0.01 µM | > 32.2 µM | < 0.01 µM | 15.5 µM | < 0.01 µM | 5.17 µM | < 0.01 µM | < 0.01 µM | < 0.01 µM | 3.42 µM | < 0.01 µM | 41.1 µM | < 0.01 µM | 3.12 µM
3 | CC(C)=CCC(O)C1=CC(=O)c2c(O)ccc(O)c2C1=O (stereo not drawn) | – | 3.02 µM | – | 4.74 µM | – | 3.41 µM | – | 2.93 µM | – | 0.0659 µM | – | 5.17 µM | – | 4.84 µM | – | 1.5 µM
4 | CC1(COc2ccc3c(c2)ncn3-c2ccc3cccc(N4CCC(N)CC4)c3n2)COC1 | 3.02 µM and 3.28 µM | 13.2 µM and > 10 µM | 1.7 µM and 1.87 µM | 4.09 µM and 5.66 µM | 16.7 µM and > 10 µM | 34.4 µM and > 10 µM | 1.78 µM and 0.822 µM | 5.12 µM and 7.4 µM | 1.82 µM and 1.8 µM | 4.54 µM and 4.49 µM | 2.92 µM and 3.29 µM | 7.99 µM and > 10 µM | 2.89 µM and 3.53 µM | 8.15 µM and > 10 µM | 1.8 µM and 1.75 µM | 4.63 µM and 3.85 µM
5 | CN1CC[C@@H](NC(=O)Nc2ccc(C#N)cc2)C[C@@H]1c1nc2ccccc2[nH]1 | > 100 µM | > 100 µM | > 100 µM | > 100 µM | 98.8 µM | > 100 µM | > 78.1 µM | > 100 µM | > 100 µM | > 100 µM | > 74.2 µM | > 100 µM | 100 µM | > 100 µM | > 100 µM | > 100 µM
6 | Nc1ccc(C2=NNC(=O)Cc3cc4c(cc32)OCCO4)cc1Cl | 12.7 µM | > 50 µM | 3.68 µM | > 50 µM | 4.42 µM | > 50 µM | 16.8 µM | > 50 µM | 1.72 µM | 12.3 µM | 2.11 µM | > 50 µM | 35.3 µM | > 50 µM | 6.51 µM | > 50 µM
7 | COc1ccc(/C=N/NC(=O)c2cccc3cc[nH]c23)cc1O | 11 µM | > 100 µM | 2.4 µM | > 100 µM | 0.878 µM | > 35.1 µM | 6.51 µM | > 100 µM | 0.55 µM | > 22.7 µM | 4.32 µM | > 100 µM | 10.3 µM | > 100 µM | 5.13 µM | > 100 µM
